Laboratory results from patent US20250129104A1, “7H-PYRROLO[2,3-D]PYRIMIDINES AND PREPARATION AND USES THEREOF” (BioSplice Therapeutics, Inc., priority 2021, published 2025).

The molecules below were run against recombinant DYRK1A kinase (Homo sapiens (Human), UniProt Q13627) (assay: DYRK1A kinase assay (Ser/Thr 18 peptide Z-lyte FRET assay)). Details: DYRK1A kinase activity; 15 μM ATP, 1 h room temperature; method text calls the value IC50.
Format: biochemical
Procedure, shortened: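 FRET Z-lyte read-out (coumarin/fluorescein ratio, % phosphorylation) after 1 h development; IC50 from non-linear curve fit. Reaction: 0.25 μg/mL recombinant human DYRK1A, Ser/Thr 18 peptide 4 μM, ATP 15 μM, compound in 11-point 1:3 series from 10 μM, 1 h, room temperature, duplicate wells.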
`CC(C)(C)CNc1ncc2c(-c3ccc4ncccc4c3)c[nH]c2n1` [Compound 1867, N-Neopentyl-5-(quinolin-6-yl)-7H-pyrrolo[2,3-d]pyrimidin-2-amine] gave an EC50 of 69.7 nM. With `CC(C)(F)CNc1ncc2c(-c3ccc4ncccc4c3)c[nH]c2n1` [Compound 1869, N-(2-Fluoro-2-methylpropyl)-5-(quinolin-6-yl)-7H-pyrrolo[2,3-d]pyrimidin-2-amine] the EC50 was 4 nM. With `c1cnc2ccc(-c3c[nH]c4nc(NC5CCOCC5)ncc34)cc2c1` [Compound 1890, 5-(Quinolin-6-yl)-N-(tetrahydro-2H-pyran-4-yl)-7H-pyrrolo[2,3-d]pyrimidin-2-amine] the EC50 was 6 nM. With `CN1CCN(c2cccc(Nc3ncc4c(-c5ccc6ncccc6c5)c[nH]c4n3)c2)CC1` [Compound 1891, N-(3-(4-Methylpiperazin-1-yl)phenyl)-5-(quinolin-6-yl)-7H-pyrrolo[2,3-d]pyrimidin-2-amine] the EC50 was 4.1 nM. In the case of `c1cnc2ccc(-c3c[nH]c4nc(Nc5ccncc5)ncc34)cc2c1` [Compound 1892, N-(pyridin-4-yl)-5-(quinolin-6-yl)-7H-pyrrolo[2,3-d]pyrimidin-2-amine], the EC50 is reported as 0.8 nM. `CN1CCN(c2cc(Nc3ncc4c(-c5ccc6ncccc6c5)c[nH]c4n3)ccn2)CC1` [Compound 1893, N-(2-(4-Methylpiperazin-1-yl)pyridin-4-yl)-5-(quinolin-6-yl)-7H-pyrrolo [2,3-d]pyrimidin-2-amine] showed an EC50 of 0.5 nM. Molecule `CN1CCN(c2ccc(Nc3ncc4c(-c5ccc6ncccc6c5)c[nH]c4n3)cn2)CC1` [Compound 1894, N-(6-(4-Methylpiperazin-1-yl)pyridin-3-yl)-5-(quinolin-6-yl)-7H-pyrrolo [2,3-d]pyrimidin-2-amine] has an EC50 of 2.3 nM. With `CN1CCN(c2ccc(CNc3ncc4c(-c5ccc6ncccc6c5)c[nH]c4n3)cn2)CC1` [Compound 1895, N-((6-(4-Methylpiperazin-1-yl)pyridin-3-yl)methyl)-5-(quinolin-6-yl)-7H-pyrrolo[2,3-d]pyrimidin-2-amine] the EC50 was 3.6 nM. With `c1cnc2ccc(-c3ncc4c(-c5ccc6ncccc6c5)c[nH]c4n3)cc2c1` [Compound 1896, 6,6′-(7H-pyrrolo[2,3-d]pyrimidine-2,5-diyl)diquinoline] the EC50 was 15.6 nM. `Cn1cc(-c2ncnc3[nH]cc(-c4ccc5ncccc5c4)c23)cn1` [Compound 1897, 6-(4-(1-methyl-1H-pyrazol-4-yl)-7H-pyrrolo[2,3-d]pyrimidin-5-yl)quinoline] showed an EC50 of 18.1 nM. `c1cnc2ccc(-c3c[nH]c4ncnc(N[C@H]5CC[C@H](N6CCOCC6)CC5)c34)cc2c1` [Compound 1898, N-(trans-4-Morpholinocyclohexyl)-5-(quinolin-6-yl)-7H-pyrrolo[2,3-d]pyrimidin-4-amine] showed an EC50 of 7.5 nM. For `Cc1nc(OCC2CCN(C)CC2)c2c(-c3ccc4ncccc4c3)c[nH]c2n1` [Compound 1899, 6-(2-Methyl-4-((1-methylpiperidin-4-yl)methoxy)-7H-pyrrolo[2,3-d]pyrimidin-5-yl)quinoline], the EC50 was 18.6 nM. `CC(C)(C)CNc1ncc2c(-c3ccc4nccnc4c3)c[nH]c2n1` [Compound 1911, N-Neopentyl-5-(quinoxalin-6-yl)-7H-pyrrolo[2,3-d]pyrimidin-2-amine] gave an EC50 of 117 nM. `C[C@@H](Nc1ncc2c(-c3ccc4nccnc4c3)c[nH]c2n1)C(F)(F)F` [Compound 1916, (R)-5-(Quinoxalin-6-yl)-N-(1,1,1-trifluoropropan-2-yl)-7H-pyrrolo[2,3-d]pyrimidin-2-amine] gave an EC50 of 6 nM. With `CN1CCC(Nc2ncc3c(-c4ccc5nccnc5c4)c[nH]c3n2)CC1` [Compound 1932, N-(1-Methylpiperidin-4-yl)-5-(quinoxalin-6-yl)-7H-pyrrolo[2,3-d]pyrimidin-2-amine] the EC50 was 12.5 nM. Work on `c1cnc2cc(-c3c[nH]c4nc(NC5CCOCC5)ncc34)ccc2n1` [Compound 1934, 5-(Quinoxalin-6-yl)-N-(tetrahydro-2H-pyran-4-yl)-7H-pyrrolo[2,3-d]pyrimidin-2-amine] yielded an EC50 of 7.8 nM.
